Reference: PMC9068900, “Pharmacology of Kappa Opioid Receptors: Novel Assays and Ligands” (Frontiers in Pharmacology, 2022)
Values joined by “and” are separate entries in the source; they are usually repeats but may differ in a detail not shown here. Equal entries are not always repeated. Where two headings read alike, the source gives them in different places. Non-standard residues stand in square brackets, D forms with d. Residues, ends and D or L forms follow the SMILES beside them. Dmt = Cc1cc(O)cc(C)c1C[C@H](N)C(=O)O; Tic = O=C(O)[C@@H]1Cc2ccccc2CN1

Columns and labels:
kappa opioid receptor [1] = conditions: ref Simonin et al., 1995; cited from earlier work
[2] = molecular target: T1, human kappa opioid receptor (Homo sapiens, UniProt P41145); test: Calcium mobilization in CHO cells co-expressing the kappa receptor and Gαqi5; assay type: cell-based; parameters: expressed in transfected cells
[3] = molecular target: T1, human kappa opioid receptor; test: Dynamic mass redistribution (DMR) label-free assay in CHO cells; assay type: cell-based; parameters: expressed in transfected cells
Procedure: DMR experiments were conducted as previously described ([Malfacini et al., 2018]). Chinese Hamster Ovary (CHO) cells stably expressing the human kappa receptor were kindly provided by L Toll (Torrey Pines Institute for Molecular Studies, Port St. Lucie, United States). Cells were cultured in Dulbecco’s Modified Eagle Medium: Nutrient Mixture F-12 (DMEM/F12) supplemented with 10% (v/v) Fetal Calf Serum (FCS), 100 U/ml penicillin, 100 μg/ml streptomycin, 2 mM L-glutamine, 15 mM HEPES. The medium was supplemented with 400 μg/ml G418 to maintain expression. Cells were seeded at a density of 45,000 cells/well in 120 μL into fibronectin-coated EnspireTM-LC 96-wells plates and cultured for 20 h to form a confluent monolayer. On the day of the experiment, cells were washed twice and maintained with assay buffer: HBSS with 20 mM HEPES, 0.01% BSA fraction V; for 90 min before the experiment. DMR was monitored in real-time with a temporal resolution of 44 s throughout the assay. Experiments were performed at 37°C, using an EnSight Multimode Plate Reader (PerkinElmer). A 5 min baseline was first established, followed by adding compounds manually in a volume of 40 μL and recording compound-triggered DMR signal for 60 min. In antagonism experiments, ligands tested as antagonists were added 30 min before agonist administration. Maximum picometers (pm) modification (peak) were used to determine agonist response after baseline normalization.
The pharmacological terminology is consistent with the International Union of Basic and Clinical Pharmacology (IUPHAR) recommendations ([Neubig et al., 2003]). Concentration-response curves to agonists were fitted to the four-parameter logistic nonlinear regression model as follows: Effect=Basal+ Emax−Basal/1+10^ (LogEC50−Log[ligand]) × HillSlope
If unsurmountable antagonist behavior was detected, the pKB value was derived as follows: a double-reciprocal plot of equi-effective concentrations of agonist (A) in the absence (1/A) and presence (1/A’) of the antagonist (B) was constructed and pKB was derived from the equation pKB = log {(slope-1)/[B]} ([Kenakin, 2009]).

kappa opioid receptor [4] = tested on: kappa opioid receptor; parameters: method as in Zhu et al., 1997; Birch et al., 1987; conditions: ref Zhu et al., 1997; Birch et al., 1987; cited from earlier work
[5] = molecular target: T1, human kappa opioid receptor; test: biochemical; assay type: biochemical; parameters: 13-mer linker peptide […]; expressed in transfected cells; enriched plasma membranes used
[6] = molecular target: T1, human kappa opioid receptor; test: BRET kappa-β-arrestin 2 interaction, SH-SY5Y whole cells; assay type: cell-based; parameters: 13-mer linker peptide […]; expressed in transfected cells; enriched plasma membranes used
guinea pig ileum = tested on: guinea pig ileum; parameters: method as in Guerrini et al., 1998; conditions: ref Guerrini et al., 1998; cited from earlier work
rabbit jejunum = tested on: rabbit jejunum; parameters: method as in Guerrini et al., 1998; conditions: ref Guerrini et al., 1998; cited from earlier work
kappa opioid receptor [7] = tested on: kappa opioid receptor; parameters: method as in Guerrini et al., 1998; conditions: ref Guerrini et al., 1998; cited from earlier work

T1 sequence (P41145 whole entry): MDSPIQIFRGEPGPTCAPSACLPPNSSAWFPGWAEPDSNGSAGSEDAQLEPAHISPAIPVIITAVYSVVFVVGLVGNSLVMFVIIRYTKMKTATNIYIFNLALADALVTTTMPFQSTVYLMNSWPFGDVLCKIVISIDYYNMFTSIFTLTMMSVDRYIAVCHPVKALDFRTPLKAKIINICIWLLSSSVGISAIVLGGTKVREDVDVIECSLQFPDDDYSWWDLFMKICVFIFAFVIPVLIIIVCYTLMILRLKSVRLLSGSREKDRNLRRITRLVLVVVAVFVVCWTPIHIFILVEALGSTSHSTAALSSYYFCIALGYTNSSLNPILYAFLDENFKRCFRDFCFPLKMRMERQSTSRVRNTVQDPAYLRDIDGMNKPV

Q: Which Affinity (kappa opioid receptor [1]) does the source give for `Oc1ccc2c3c1O[C@H]1c4[nH]c5c(c4C[C@@]4(O)[C@@H](C2)N(CC2CC2)CC[C@]314)C[C@@]1(O)[C@H]2Cc3ccc(O)c4c3[C@@]1(CCN2CC1CC1)[C@H]5O4` [Nor-BNI, Nor-Binaltorphimine] here?
A: Its Affinity is “approximately 1 nM”.

Q: And the “Calcium Mobilization pEC50 (CL95%)” value ([2]; CHO cells, human kappa + Gαqi5)?
A: The value was “inactive”.

Q: And the “Calcium Mobilization α (intrinsic activity: maximal effect divided by that of Dyn A)” value ([2]; CHO cells, human kappa + Gαqi5)?
A: The value was “inactive”.

Q: What about the “Stimulation of calcium flux (in words)” value ([2]; tested as agonist) of the same molecule?
A: Its value is “completely inactive”.

Q: And the “DMR pEC50 (CL95%)” value ([3]; CHO cells, human kappa)?
A: Its value is “inactive”.

Q: And the “DMR α” value ([3]; relative to Dyn A)?
A: The value was “inactive”.

Q: And the “Effect on DMR baseline (in words)” value ([3]; tested as agonist)?
A: Its value is “did not modify DMR baseline”.

Q: And the Potency (kappa opioid receptor [4])?
A: Its Potency is 0.1 nM.

Q: What about the “Emax ± sem” value ([5]; 5 min, fraction of Dyn A maximal effect) of the same molecule?
A: Its value is “inactive”.

Q: What about the “pEC50 (CL95%)” value ([5]; 5 min after compound addition) of the same molecule?
A: Its value is “inactive”.

Q: What about the “BRET β-Arrestin 2 pEC50 (CL95%)” value ([6]; SH-SY5Y cells, kappa-RLuc/β-arrestin 2-RGFP) of the same molecule?
A: The value was “inactive”.

Q: And the “BRET β-Arrestin 2 α” value ([6]; relative to Dyn A)?
A: Its value is “inactive”.

Q: For `CC[C@H](C)[C@H](NC(=O)[C@H](CCCNC(=N)N)NC(=O)[C@H](CCCNC(=N)N)NC(=O)[C@H](CC(C)C)NC(=O)[C@H](Cc1ccccc1)NC(=O)CNC(=O)[C@@H]1Cc2ccccc2CN1C(=O)[C@@H](N)Cc1c(C)cc(O)cc1C)C(=O)N[C@@H](CCCNC(=N)N)C(=O)N1CCC[C@H]1C(=O)N[C@@H](CCCCN)C(N)=O` [[Dmt^1,Tic^2], [Dmt^1,Tic^2]Dyn(1-11)-NH2] (H-[Dmt][Tic]GFLRRIRPK-NH2; N-terminus assumed), which “Calcium Mobilization pA2 (CL95%)” value [2] is on record?
A: Its value is 6.6.

Q: What about the “Calcium Mobilization pEC50 (CL95%)” value [2] of the same molecule?
A: Its value is “∼6.9”.

Q: What about the “Calcium Mobilization α (intrinsic activity: maximal effect divided by that of Dyn A)” value [2] of the same molecule?
A: Its value is 0.15.

Q: And the “Increase of calcium levels” value [2]?
A: The value was 50 % over the baseline.

Q: And the “Calcium Mobilization pA2 (CL95%)” value ([2]; cho cells)?
A: The value was 6.6 (6.16–7.14).

Q: What about the Antagonist potency (guinea pig ileum) of the same molecule?
A: The Antagonist potency was 90 nM.

Q: What about the Antagonist potency (rabbit jejunum) of the same molecule?
A: Its Antagonist potency is 8 nM.

Q: What about the “DMR pA2 (CL95%)” value [3] of the same molecule?
A: The value was 7.7.

Q: And the “DMR pEC50 (CL95%)” value [3]?
A: Its value is 7.11 (5.61–8.61).

Q: And the “DMR α” value [3]?
A: Its value is 0.47.

Q: And the “Effect on DMR baseline (in words)” value [3]?
A: The value was “slightly stimulated the DMR response only at micromolar concentrations”.

Q: And the “DMR pA2 (CL95%)” value ([3]; cho cells)?
A: The value was 7.7 (7.11–8.29).

Q: What about the “Affinity at the mu opioid receptor relative to kappa (in words)” value (kappa opioid receptor [7]) of the same molecule?
A: Its value is “equal affinity”.

Q: What about the Affinity values (kappa opioid receptor [7]) of the same molecule?
A: Its Affinity values is 3.3—4.3 nM.

Q: What about the “Higher affinity at the delta opioid receptor” value (kappa opioid receptor [7]) of the same molecule?
A: Its value is 10 fold.

Q: And the “BRET G Protein pA2 (CL95%)” value [5]?
A: The value was 7.5.

Q: What about the “BRET G Protein pEC50 (CL95%)” value [5] of the same molecule?
A: The value was 6.95 (6.14–7.75).

Q: And the “BRET G Protein α” value [5]?
A: Its value is 0.35.

Q: And the “Emax ± sem” value [5]?
A: Its value is 0.30 ± 0.02 and 0.35 ± 0.06.

Q: What about the “pEC50 (CL95%)” value [5] of the same molecule?
A: Its value is 7.09.

Q: What about the “BRET G Protein pA2 (CL95%)” value ([5]; sh-sy5y cell membranes) of the same molecule?
A: Its value is 7.5 (5.35–9.65).

Q: And the “BRET β-Arrestin 2 pA2 (CL95%)” value [6]?
A: Its value is 7.3.

Q: What about the “BRET β-Arrestin 2 pEC50 (CL95%)” value [6] of the same molecule?
A: The value was “inactive”.

Q: And the “BRET β-Arrestin 2 α” value [6]?
A: Its value is “inactive”.

Q: And the “Residual agonist activity (in words)” value [6]?
A: Its value is “did not show any residual agonist activity”.

Q: What about the “BRET β-Arrestin 2 pA2 (CL95%)” value ([6]; sh-sy5y cells) of the same molecule?
A: The value was 7.3 (6.5–8.1).
